Measurements: US11149062B2, “HDAC inhibitors and methods of treatment using the same” (UWM Research Foundation, Inc., priority 2015, dated 2021)

Assays:
Recombinant human HDAC1 = molecular target: T1, Recombinant human HDAC1 (Homo sapiens, UniProt Q13547); assay: HDAC-Glo I/II assay, HDAC1; assay type: biochemical; conditions: for IC50: Class I HDAC, compounds reduced by TCEP prior to assay, read-out: IC50 of HDAC1; for Class I selectivity Ratio HDAC 1/HDAC8: ratio of IC50 values
T1 construct: purchased BPS Bioscience Inc
Experimental: (§1) The purified compounds of all fragments and natural product derivatives were evaluated for inhibitory effects on three different classes of HDAC proteins (class I, IIa, and IIb). […] All activity was determined by using a fluorescence-based in vitro assay. Class I HDAC proteins that were evaluated were HDAC1, HDAC2, HDAC3, HDAC8, HDAC4, and HDAC6. Class IIa HDAC protein were HDAC4 and the Class IIb HDAC protein were HDAC6.
(§2) HDAC-Glo™ I/II Assay and Screening System (Promega) was used to determine the HDAC inhibitory activity. Recombinant human HDAC1, HDAC2, HDAC3, HDAC4, HDAC6 and HDAC8 were purchased from BPS Bioscience Inc. The inhibitory activities of the test compounds against recombinant HDAC were performed according to reagent suppliers' protocols.
(§3) All test compounds were firstly dissolved in DMSO to make 10 mM stock solution. A certain amount of stock solution was diluted to 1 mM by DMSO and then reduced by tris(2-carboxyethyl)phosphine hydrochloride (TCEP) in a molar ration of 1:1.5 for 20 min at ambient temperature prior to being assayed. After reduction, a series of fivefold dilutions of each reduced compound were prepared with HDAC-Glo buffer and 25 μL of each dilution was added into a well on a 96-well plate. HDAC enzymes were diluted to the desired concentrations with HDAC-Glo buffer and 25 μL of each diluted enzyme was dispensed into a well to mix with 25 μL of testing compound at room temperature for 30-60 seconds. After the reaction mixture had been incubated at room temperature for 1 hour, 50 μL of HDAC-Glo reagent was added to each reaction well and mixed up for 30-60 seconds. Finally, the plate was incubated at room temperature for an additional 30 minutes before the luminescence was measured on a Synergy HT plate reader (Bio-Tek). The luminescence intensity data were analyzed using GraphPad Prism 5 (GraphPad Software). In the absence of any test compound, the luminescence intensity (I100) in each data set was defined as 100% activity. In the absence of both of HDAC enzymes and test compound, the luminescence intensity (I0) in each data set was defined as 0% activity. The relative activity (%) in the presence of each compound was calculated according to the following equation: % activity=(I−I0)/(I100−I0), where I=the luminescence intensity if a compound is present in the reaction. Experiments were performed in triplicate and the calculated mean values were used for plotting.

Recombinant human HDAC2 = molecular target: T2, Recombinant human HDAC2 (Homo sapiens, UniProt Q92769); assay: HDAC-Glo I/II assay, HDAC2; assay type: biochemical; conditions: Class I HDAC; compounds reduced by TCEP prior to assay
T2 construct: purchased BPS Bioscience Inc
Experimental: as §1, §2, §3

Recombinant human HDAC4 = molecular target: T3, Recombinant human HDAC4 (Homo sapiens, UniProt P56524); assay: HDAC-Glo I/II assay, HDAC4; assay type: biochemical; conditions: Class IIa HDAC; compounds reduced by TCEP prior to assay; read-out: IC50 of HDAC4
T3 construct: purchased BPS Bioscience Inc
Experimental: as §1, §2, §3

Recombinant human HDAC6 = molecular target: T4, Recombinant human HDAC6 (Homo sapiens, UniProt Q9UBN7); assay: HDAC-Glo I/II assay, HDAC6; assay type: biochemical
T4 construct: purchased BPS Bioscience Inc
T4 sequence (Q9UBN7 1-1215): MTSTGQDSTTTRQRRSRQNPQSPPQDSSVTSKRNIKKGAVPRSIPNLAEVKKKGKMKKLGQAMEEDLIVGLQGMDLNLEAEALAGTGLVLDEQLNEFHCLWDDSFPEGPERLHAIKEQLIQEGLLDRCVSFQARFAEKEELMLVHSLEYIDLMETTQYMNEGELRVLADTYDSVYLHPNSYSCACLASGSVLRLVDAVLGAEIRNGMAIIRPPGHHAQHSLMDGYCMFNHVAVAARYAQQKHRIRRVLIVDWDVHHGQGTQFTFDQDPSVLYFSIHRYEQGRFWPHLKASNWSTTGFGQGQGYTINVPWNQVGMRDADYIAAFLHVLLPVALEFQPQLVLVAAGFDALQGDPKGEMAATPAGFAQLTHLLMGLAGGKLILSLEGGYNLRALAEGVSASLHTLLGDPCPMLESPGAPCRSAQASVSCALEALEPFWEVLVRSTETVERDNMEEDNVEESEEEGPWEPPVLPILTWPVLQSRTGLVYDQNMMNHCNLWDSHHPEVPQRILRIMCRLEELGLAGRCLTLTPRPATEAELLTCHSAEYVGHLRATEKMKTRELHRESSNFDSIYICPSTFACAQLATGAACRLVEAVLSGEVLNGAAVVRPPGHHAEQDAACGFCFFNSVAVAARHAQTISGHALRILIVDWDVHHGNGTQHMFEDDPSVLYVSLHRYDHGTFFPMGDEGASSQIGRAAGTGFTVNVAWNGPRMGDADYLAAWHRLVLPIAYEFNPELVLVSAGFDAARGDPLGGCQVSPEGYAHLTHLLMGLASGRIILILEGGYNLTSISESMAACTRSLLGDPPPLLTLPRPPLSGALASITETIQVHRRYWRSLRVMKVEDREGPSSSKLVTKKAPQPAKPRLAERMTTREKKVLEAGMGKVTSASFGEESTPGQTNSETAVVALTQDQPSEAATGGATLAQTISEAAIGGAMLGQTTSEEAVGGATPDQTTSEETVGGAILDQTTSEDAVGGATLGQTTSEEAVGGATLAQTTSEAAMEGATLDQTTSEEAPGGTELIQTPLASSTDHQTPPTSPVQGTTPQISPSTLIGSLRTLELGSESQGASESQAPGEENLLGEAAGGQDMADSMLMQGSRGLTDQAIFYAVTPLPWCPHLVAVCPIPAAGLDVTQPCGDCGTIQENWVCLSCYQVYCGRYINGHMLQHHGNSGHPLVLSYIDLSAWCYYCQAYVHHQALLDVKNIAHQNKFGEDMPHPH
Experimental: as §1
HDAC-Glo™ I/II Assay and Screening System (Promega) was used to determine the HDAC inhibitory activity. […]
All test compounds were firstly dissolved in DMSO to make 10 mM stock solution. […] Finally, the plate was incubated at room temperature for an additional 30 minutes before the luminescence was measured on a Synergy HT plate reader (Bio-Tek). The luminescence intensity data were analyzed using GraphPad Prism 5 (GraphPad Software). In the absence of any test compound, the luminescence intensity (I100) in each data set was defined as 100% activity. In the absence of both of HDAC enzymes and test compound, the luminescence intensity (I0) in each data set was defined as 0% activity. The relative activity (%) in the presence of each compound was calculated according to the following equation: % activity=(I−I0)/(I100−I0), where I=the luminescence intensity if a compound is present in the reaction. […]

HCT-116 (colon cancer) = assay: MTT antiproliferative assay, HCT-116; assay type: cell-based; conditions: Homo sapiens, HCT-116; MTT, 48 h; read-out: Antiproliferative Activity GI50, Colon HCT-116
Experimental: (§4) Briefly, the tumor cells (1×10^4 cells/well) were seeded in 96-well microtiter plates and incubated for 24 h at 37° C. Following incubation, the media was replaced with fresh media containing the above compounds at concentrations ranging from 1 μM to 1 pM diluted in DMSO and incubated for an additional 48 h. Drugs were run in duplicate or triplicate and control cells received fresh media with DMSO concentration equivalent to the treatment groups. […] After aspirating the culture medium, 200 μL of DMSO was added to dissolve the precipitate and the resulting solution was measured for absorbance at 570 nm with a reference wavelength of 690 nm using a microplate reader (Infinite M200 Pro TECAN).

[1] = test system: colon (HCT-116), cervical (HeLa), and renal (RFX393) tumor cell lines; assay: MTT antiproliferative assay, all three tumor cell lines; assay type: cell-based; conditions: HCT-116, HeLa, RFX393; summary of Table 3; read-out: GI50 values against all three tumor cell lines
Experimental: as §4

[2] = 10 mg/mL cpd in 20% DMSO/saline

T1 sequence (Q13547 whole entry): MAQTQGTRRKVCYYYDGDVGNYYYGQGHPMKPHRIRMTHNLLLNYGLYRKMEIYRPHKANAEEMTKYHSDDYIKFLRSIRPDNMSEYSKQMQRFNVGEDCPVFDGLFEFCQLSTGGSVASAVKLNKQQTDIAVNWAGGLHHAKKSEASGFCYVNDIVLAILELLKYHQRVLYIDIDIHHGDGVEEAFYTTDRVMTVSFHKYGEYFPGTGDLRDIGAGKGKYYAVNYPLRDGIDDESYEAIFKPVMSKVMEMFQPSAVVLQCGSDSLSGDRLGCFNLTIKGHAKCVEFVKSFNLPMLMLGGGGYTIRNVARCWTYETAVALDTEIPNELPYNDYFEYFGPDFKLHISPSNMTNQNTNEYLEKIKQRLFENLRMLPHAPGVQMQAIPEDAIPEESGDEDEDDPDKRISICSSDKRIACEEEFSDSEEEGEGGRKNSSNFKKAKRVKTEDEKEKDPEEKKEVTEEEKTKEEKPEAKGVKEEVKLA
T2 sequence (Q92769 whole entry): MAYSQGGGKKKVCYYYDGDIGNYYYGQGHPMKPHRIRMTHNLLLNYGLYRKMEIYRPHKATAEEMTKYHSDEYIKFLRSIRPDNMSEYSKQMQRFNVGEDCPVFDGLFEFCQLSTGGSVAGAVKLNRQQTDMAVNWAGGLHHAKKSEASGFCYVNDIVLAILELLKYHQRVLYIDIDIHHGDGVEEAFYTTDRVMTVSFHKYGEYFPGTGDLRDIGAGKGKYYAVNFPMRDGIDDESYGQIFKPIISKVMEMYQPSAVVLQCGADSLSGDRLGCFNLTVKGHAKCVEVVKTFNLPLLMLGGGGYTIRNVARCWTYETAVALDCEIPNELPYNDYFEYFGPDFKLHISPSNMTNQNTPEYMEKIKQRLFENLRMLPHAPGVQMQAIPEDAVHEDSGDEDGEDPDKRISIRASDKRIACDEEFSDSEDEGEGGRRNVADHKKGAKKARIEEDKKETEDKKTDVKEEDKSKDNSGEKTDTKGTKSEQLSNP
T3 sequence (P56524 whole entry): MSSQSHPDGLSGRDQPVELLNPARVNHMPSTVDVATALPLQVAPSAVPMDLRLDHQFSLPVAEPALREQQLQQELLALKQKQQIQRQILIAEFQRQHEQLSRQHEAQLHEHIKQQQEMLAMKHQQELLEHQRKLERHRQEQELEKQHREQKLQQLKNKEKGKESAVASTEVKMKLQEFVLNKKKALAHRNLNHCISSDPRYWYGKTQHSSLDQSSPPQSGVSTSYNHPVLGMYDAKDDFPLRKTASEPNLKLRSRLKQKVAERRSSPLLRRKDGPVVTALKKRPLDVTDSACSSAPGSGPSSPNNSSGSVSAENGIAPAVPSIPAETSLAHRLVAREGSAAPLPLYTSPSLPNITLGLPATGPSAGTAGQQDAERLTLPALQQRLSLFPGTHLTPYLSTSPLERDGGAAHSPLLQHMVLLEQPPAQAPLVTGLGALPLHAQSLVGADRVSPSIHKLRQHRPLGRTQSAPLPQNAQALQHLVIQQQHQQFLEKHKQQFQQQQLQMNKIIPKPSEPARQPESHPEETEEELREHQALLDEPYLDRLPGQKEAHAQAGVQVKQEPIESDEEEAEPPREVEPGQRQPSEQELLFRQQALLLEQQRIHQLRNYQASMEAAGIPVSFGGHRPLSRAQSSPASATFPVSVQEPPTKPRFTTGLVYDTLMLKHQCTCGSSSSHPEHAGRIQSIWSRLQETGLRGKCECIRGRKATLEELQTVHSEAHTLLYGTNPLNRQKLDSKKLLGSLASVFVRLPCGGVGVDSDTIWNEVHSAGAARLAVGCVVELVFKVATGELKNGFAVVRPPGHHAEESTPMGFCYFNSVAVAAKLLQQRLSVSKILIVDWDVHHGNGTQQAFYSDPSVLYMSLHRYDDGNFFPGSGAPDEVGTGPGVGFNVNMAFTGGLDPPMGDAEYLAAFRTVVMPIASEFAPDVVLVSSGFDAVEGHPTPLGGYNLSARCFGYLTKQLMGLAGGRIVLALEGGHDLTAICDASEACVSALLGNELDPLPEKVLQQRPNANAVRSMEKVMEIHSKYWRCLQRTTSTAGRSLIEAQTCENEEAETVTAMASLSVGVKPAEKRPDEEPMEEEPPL

| SMILES | IC50 (Recombinant human HDAC1) | Class I selectivity Ratio HDAC 1/HDAC8 (Recombinant human HDAC1) | IC50 (Recombinant human HDAC2) | IC50 (Recombinant human HDAC4) | inhibitory activity toward HDAC6 (in words) (Recombinant human HDAC6) | GI50 (HCT-116 (colon cancer)) | GI50 [1] | Solubility [2] |
| --- | --- | --- | --- | --- | --- | --- | --- | --- |
| CSCC[C@H]1NC(=O)CC(O)/C=C/CCSSC[C@H](C(=O)O)NC1=O (stereo partly drawn) [TDF3, (4S,7R,12E)-11-hydroxy-7-[2-(methylsulfanyl)ethyl]-6,9-dioxo-1,2-dithia-5,8-diazacyclopentadec-12-ene-4-carboxylic acid] | 0.0229 µM | 0.00036 | 0.0875 µM | > 1000 µM | no inhibitory activity | 0.3 µM | 0.6 µM | Soluble |
| COC(=O)[C@H]1CSSCC/C=C/C(O)CC(=O)N[C@H](CCSC)C(=O)N1 (stereo partly drawn) [TDF3m, Methyl (4S,7R,12E)-11-hydroxy-7-[2-(methylsulfanyl)ethyl]-6,9-dioxo-1,2-dithia-5,8-diazacyclopentadec-12-ene-4-carboxylate] | 0.0125 µM | 0.00028 | 0.0942 µM | > 1000 µM | no inhibitory activity | 0.2 µM | 0.4 µM | Partially soluble |
